Assay results published in patent publication US11730719B2, “Pharmaceutical composition” (KOWA COMPANY, LTD., priority 2017, dated 2023).

How the values were obtained:
[1] = Hygroscopic property evaluation of pemafibrate crystal (Karl Fischer moisture content); assay type: physicochemical
Protocol: A pemafibrate crystal was produced by recrystallizing pemafibrate from an ethyl acetate/heptane mixture in accordance with the method for producing a pemafibrate crystal as described in Non-Patent Document 1.
250 mg of the pemafibrate crystal was placed in a dish, and stored in an uncapped state (open state) in a dark place at 25° C. and 83% relative humidity (RH) for 3 months. The hygroscopic property was evaluated by measuring the moisture contents before and after the storage. The measurement of the moisture content was performed by a coulometric titration method in accordance with The Japanese Pharmacopoeia, 17th Edition, Moisture Content Measurement Method (Karl Fischer Method).

[2] = Examination of stability of pemafibrate (open dish storage, related substances by HPLC); assay type: physicochemical
Protocol: 250 mg of pemafibrate was placed in a dish, and stored in an uncapped state (open state) in a dark place at 40° C. and 75% relative humidity (RH) for 3 months.
The sum of related substance-derived peak areas was evaluated in terms of a ratio (%) to the pemafibrate-derived peak area using an HPLC apparatus, and the ratio was defined as the “Total amount (%) of related substances”.

Moisture content (%) ([1]; After storage at 25° C. and 83% RH for 3 months, open state in dish, dark place) | Moisture content (%) ([1]; Before storage, 250 mg in dish) | Hygroscopic property ([1]; storage at 83% RH for 3 months) | Total amount (%) of related substances ([2]; After storage at 40° C. and 75% RH for 3 months, open state in dish, dark place) [%] | Total amount (%) of related substances ([2]; Before storage, 250 mg in dish) [%] | Stability against moisture content ([2]; storage at 75% RH for 3 months) | Compound
<0.1 | <0.1 | not hygroscopic |  |  |  | CC[C@@H](Oc1cccc(CN(CCCOc2ccc(OC)cc2)c2nc3ccccc3o2)c1)C(=O)O [Pemafibrate crystal, (2R)-2-[3-([1,3-Benzoxazol-2-yl[3-(4-methoxyphenoxy)propyl]amino]methyl)phenoxy]butanoic acid]
 |  |  | <0.05 | <0.05 | stable | CC[C@@H](Oc1cccc(CN(CCCOc2ccc(OC)cc2)c2nc3ccccc3o2)c1)C(=O)O [Pemafibrate, (2R)-2-[3-([1,3-Benzoxazol-2-yl[3-(4-methoxyphenoxy)propyl]amino]methyl)phenoxy]butanoic acid]
